Values after ≈ are worked out from the molar mass of the structure shown.
Key:
[1] = Toxicity in standardized culture assay; details: human
HBV replication = experiment: Anti-HBV antiviral assay in standardized culture assay; details: for EC50: Hepatitis B virus, read-out: EC50 (anti-HBV activity); for activity against HBV replication (in words): human hepatoblastoma cell line, activity order 5 > 6 > 4 > 3 > 1 > 2 > 7; for SI (CC50/EC50): selectivity index, ratio of CC50 to EC50
[2] = HBV-producing human hepatoblastoma cell line

| SMILES | CC50 [1] [µg/mL] | EC50 (HBV replication) [µg/mL] | activity against HBV replication (in words) (HBV replication) | SI (CC50/EC50) (HBV replication) | CC50 [1, 2] [µg/mL] |
| --- | --- | --- | --- | --- | --- |
| N#C/C=C1/C=C[C@H](O)C[C@@H]1O[C@@H]1O[C@H](CO)[C@@H](O)[C@H](O)[C@H]1O [Compound 5, menisdaurin] | 57.8 ± 3.9 (≈ 184 µM) | 5.1 ± 0.2 (≈ 16.3 µM) | most effective activity | 11.3 | – |
| N#C/C=C1\C=C[C@H](O)C[C@@H]1O [Compound 6, coclauril] | 83.9 ± 2.3 (≈ 555 µM) | 7.6 ± 0.5 (≈ 50.3 µM) | – | 11.0 | – |
| N#C/C=C1/CC[C@H](O)C[C@@H]1O [Compound 4, Menisdaurin E] | – | 8.7 ± 1.1 (≈ 56.8 µM) | – | 8.3 | 72.3 ± 4.1 (≈ 472 µM) |
| CO[C@H]1CC/C(=C/C#N)[C@@H](O[C@@H]2O[C@H](CO)[C@@H](O)[C@H](O)[C@H]2O)C1 [Compound 2, Menisdaurin C] | 165 ± 10.4 (≈ 501 µM) | 30.7 ± 1 (≈ 93.2 µM) | – | 5.4 | – |
| N#C/C=C1/CC[C@H](O)C[C@@H]1O[C@@H]1O[C@H](CO)[C@@H](O)[C@H](O)[C@H]1O [Compound 3, Menisdaurin D] | 182 ± 6.8 (≈ 577 µM) | 19.4 ± 0.3 (≈ 61.5 µM) | – | 9.4 | – |
| Nc1ccn([C@@H]2CS[C@H](CO)O2)c(=O)n1 [Lamivudine, reference compound] | – | 0.1 ± 0.03 (≈ 0.436 µM) | – | – | – |
| O=C1C=C2C=C[C@@H](O)C[C@H]2O1 [Compound 7, menisdaurilide] | – | 80.7 ± 5.8 (≈ 530 µM) | lesser degree of specific activity | 2.7 | 215 ± 14.7 (≈ 1410 µM) |
| CO[C@H]1C=C/C(=C/C#N)[C@@H](O[C@@H]2O[C@H](CO)[C@@H](O)[C@H](O)[C@H]2O)C1 [Compound 1, Menisdaurin B] | 178 ± 13.3 (≈ 544 µM) | 23.8 ± 0.5 (≈ 72.7 µM) | – | 7.5 | – |
